Data published in patent US10059701B2 (Merck Patent GmbH, priority 2015, dated 2018).
Where a name gives a salt, the structure may show the parent alone.

Experiments:
IRAK1 = target: T1, IRAK1 (Homo sapiens, UniProt P51617); experiment: IRAK1 enzymatic assay (ADP-Glo luminescence); type: biochemical; conditions: purified human recombinant His-TEV-IRAK1 (194-712)
T1 construct: His-TEV-IRAK1 (194-712); His (N); TEV cleavage site (N)
How it was run: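 Recombinant human His-TEV-IRAK1 (194-712), 0.3 μg/ml, preincubated 15 min at RT with compounds (10 μM to 0.5 nM) in 50 mM Hepes pH 7.0, 10 mM MgCl2, 2 mM DTT, 0.1% BSA. ATP-started reaction run 2 hours at RT; ADP formed from ATP hydrolysis/autophosphorylation read by ADP-Glo luminescence.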

IRAK4 = target: T2, IRAK4 (Homo sapiens, UniProt Q9NWZ3); experiment: IRAK4 enzymatic assay (ADP-Glo luminescence); type: biochemical; conditions: purified human recombinant His-TEV-IRAK4 (1-460), ATP 2 μM
T2 construct: His-TEV-IRAK4 (1-460); His (N); TEV cleavage site (N)
T2 sequence (Q9NWZ3 1-460): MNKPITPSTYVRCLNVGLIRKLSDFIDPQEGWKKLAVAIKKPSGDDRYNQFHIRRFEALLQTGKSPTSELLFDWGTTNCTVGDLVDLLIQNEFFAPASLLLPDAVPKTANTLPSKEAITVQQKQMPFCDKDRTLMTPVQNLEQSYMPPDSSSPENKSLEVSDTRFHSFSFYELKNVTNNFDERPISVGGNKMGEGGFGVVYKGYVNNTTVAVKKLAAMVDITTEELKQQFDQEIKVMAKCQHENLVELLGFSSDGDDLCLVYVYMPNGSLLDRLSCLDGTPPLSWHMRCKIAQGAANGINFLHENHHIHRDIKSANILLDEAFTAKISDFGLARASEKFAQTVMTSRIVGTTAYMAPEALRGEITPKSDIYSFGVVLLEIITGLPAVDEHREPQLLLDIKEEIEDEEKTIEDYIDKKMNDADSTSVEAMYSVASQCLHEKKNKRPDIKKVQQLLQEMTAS
How it was run: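 Recombinant His-TEV-IRAK4 (1-460) at 0.3 μg/ml preincubated 15 min at RT with compounds (10 μM to 0.5 nM) in Hepes pH 7.0 buffer with MgCl2/MnCl2. Reaction started with 2 μM ATP and 300 nM STK1-biotin peptide, run 2 h at RT. ADP formed read by ADP-Glo luminescence.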

T1 sequence (P51617 194-712): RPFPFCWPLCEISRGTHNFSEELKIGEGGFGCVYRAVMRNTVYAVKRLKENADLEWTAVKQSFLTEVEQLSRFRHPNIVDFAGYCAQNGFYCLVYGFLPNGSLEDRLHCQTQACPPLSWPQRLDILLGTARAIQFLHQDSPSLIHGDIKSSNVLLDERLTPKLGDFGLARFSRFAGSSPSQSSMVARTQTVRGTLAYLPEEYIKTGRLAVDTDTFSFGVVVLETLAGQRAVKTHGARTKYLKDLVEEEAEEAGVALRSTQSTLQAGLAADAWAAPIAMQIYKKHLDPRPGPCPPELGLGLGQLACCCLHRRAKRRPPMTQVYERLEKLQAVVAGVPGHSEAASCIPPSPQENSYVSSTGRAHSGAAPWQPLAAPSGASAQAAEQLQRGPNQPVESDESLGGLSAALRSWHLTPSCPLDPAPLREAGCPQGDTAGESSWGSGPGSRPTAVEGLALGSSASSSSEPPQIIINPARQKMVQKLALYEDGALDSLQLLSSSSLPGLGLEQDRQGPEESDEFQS

IC50 (IRAK1) [nM] | IC50 (IRAK4) [nM] | Compound
100 to 1000 | ≤ 100 | C#CCn1/c(=N/C(=O)c2cccc(C(F)(F)F)c2)[nH]c2cc(N3CCCOC3=O)ccc21 [Compound 175, (E)-N-(5-(2-oxo-1,3-oxazinan-3-yl)-1-(prop-2-yn-1-yl)-1H-benzo[d]imidazol-2(3H)-ylidene)-3-(trifluoromethyl)benzamide]
100 to 1000 | ≤ 100 | O=C(/N=c1\[nH]c2cc(N3CCCOC3=O)ccc2n1CCC(F)(F)F)c1cccc(C(F)(F)F)c1 [Compound 176, (E)-N-(5-(2-oxo-1,3-oxazinan-3-yl)-1-(3,3,3-trifluoropropyl)-1H-benzo[d]imidazol-2(3H)-ylidene)-3-(trifluoromethyl)benzamide]
100 to 1000 | ≤ 100 | CC(F)(F)Cn1/c(=N/C(=O)c2cccc(C(F)(F)F)c2)[nH]c2cc(N3CCCOC3=O)ccc21 [Compound 179, (E)-N-(1-(2,2-difluoropropyl)-5-(2-oxo-1,3-oxazinan-3-yl)-1H-benzo[d]imidazol-2(3H)-ylidene)-3-(trifluoromethyl)benzamide]
≤ 100 | ≤ 100 | O=C(/N=c1\[nH]c2cc(N3CCN(C4CC4)CC3=O)ccc2n1CCCO)c1cccc(C(F)(F)F)c1 [Compound 183, (E)-N-(5-(4-cyclopropyl-2-oxopiperazin-1-yl)-1-(3-hydroxypropyl)-1H-benzo[d]imidazol-2(3H)-ylidene)-3-(trifluoromethyl)benzamide]
100 to 1000 | ≤ 100 | O=C(/N=c1\[nH]c2cc(N3CCSCC3=O)ccc2n1CCCO)c1cccc(C(F)(F)F)c1 [Compound 186, (E)-N-(1-(3-hydroxypropyl)-5-(3-oxothiomorpholino)-1H-benzo[d]imidazol-2(3H)-ylidene)-3-(trifluoromethyl)benzamide]
≤ 100 | ≤ 100 | O=C(/N=c1\[nH]c2cc(N3CCSCC3=O)ccc2n1CCCO)c1cccc(C(F)F)c1 [Compound 187, (E)-3-(difluoromethyl)-N-(1-(3-hydroxypropyl)-5-(3-oxothiomorpholino)-1H-benzo[d]imidazol-2(3H)-ylidene)benzamide]
100 to 1000 | ≤ 100 | Cn1cnn(-c2ccc3c(c2)[nH]/c(=N\C(=O)c2cccc(C(F)(F)F)c2)n3CCCO)c1=O [Compound 188, (E)-N-(1-(3-hydroxypropyl)-5-(4-methyl-5-oxo-4,5-dihydro-1H-1,2,4-triazol-1-yl)-1H-benzo[d]imidazol-2(3H)-ylidene)-3-(trifluoromethyl)benzamide]
≤ 100 | ≤ 100 | Cn1ncn(-c2ccc3c(c2)[nH]/c(=N\C(=O)c2cccc(C(F)(F)F)c2)n3CCCO)c1=O [Compound 189, (E)-N-(1-(3-hydroxypropyl)-5-(1-methyl-5-oxo-4,5-dihydro-1H-1,2,4-triazol-4(5H)-yl)-1H-benzo[d]imidazol-2(3H)-ylidene)-3-(trifluoromethyl)benzamide]
100 to 1000 | ≤ 100 | O=C(/N=c1\[nH]c2cc(N3CCCCS3(=O)=O)ccc2n1CCCO)c1cccc(C(F)(F)F)c1 [Compound 190, (E)-N-(5-(1,1-dioxido-1,2-thiazinan-2-yl)-1-(3-hydroxypropyl)-1H-benzo[d]imidazol-2(3H)-ylidene)-3-(trifluoromethyl)benzamide]
100 to 1000 | ≤ 100 | CC1(C)NCCN(c2ccc3c(c2)[nH]/c(=N\C(=O)c2cccc(C(F)(F)F)c2)n3CCCO)C1=O [Compound 191, (E)-N-(5-(3,3-dimethyl-2-oxopiperazin-1-yl)-1-(3-hydroxypropyl)-1H-benzo[d]imidazol-2(3H)-ylidene)-3-(trifluoromethyl)benzamide hydrochloride]
100 to 1000 | ≤ 100 | O=C(/N=c1\[nH]c2cc(N3CCOCCC3=O)ccc2n1CCCO)c1cccc(C(F)(F)F)c1 [Compound 192, (E)-N-(1-(3-hydroxypropyl)-5-(5-oxo-1,4-oxazepan-4-yl)-1H-benzo[d]imidazol-2(3H)-ylidene)-3-(trifluoromethyl)benzamide]
≤ 100 | ≤ 100 | O=C(/N=c1\[nH]c2cc(N3CCCOCC3=O)ccc2n1CCCO)c1cccc(C(F)(F)F)c1 [Compound 193, (E)-N-(1-(3-hydroxypropyl)-5-(3-oxo-1,4-oxazepan-4-yl)-1H-benzo[d]imidazol-2(3H)-ylidene)-3-(trifluoromethyl)benzamide]
100 to 1000 | ≤ 100 | CC1(C)C(=O)N(c2ccc3c(c2)[nH]/c(=N\C(=O)c2cccc(C(F)(F)F)c2)n3CCCO)CCN1C1CC1 [Compound 194, (E)-N-(5-(4-cyclopropyl-3,3-dimethyl-2-oxopiperazin-1-yl)-1-(3-hydroxypropyl)-1H-benzo[d]imidazol-2(3H)-ylidene)-3-(trifluoromethyl)benzamide]

Further lines, the compound ahead of its results:

Compound | IC50 (IRAK1) [nM] | IC50 (IRAK4) [nM]
O=C(/N=c1\[nH]c2cc(N3CCCOC3=O)ccc2n1CC1(C(=O)O)CC1)c1cccc(C(F)(F)F)c1 [Compound 174, (E)-1-((5-(2-oxo-1,3-oxazinan-3-yl)-2-((3-(trifluoromethyl)benzoyl)imino)-2,3-dihydro-1H-benzo[d]imidazol-1-yl)methyl)cyclopropanecarboxylic acid] | 100 to 1000 | ≤ 100
O=C(/N=c1\[nH]c2cc(N3CCCOC3=O)ccc2n1CC(F)(F)C(F)(F)F)c1cccc(C(F)(F)F)c1 [Compound 177, (E)-N-(5-(2-oxo-1,3-oxazinan-3-yl)-1-(2,2,3,3,3-pentafluoropropyl)-1H-benzo[d]imidazol-2(3H)-ylidene)-3-(trifluoromethyl)benzamide] | > 1000 | ≤ 100
CC(C)(F)Cn1/c(=N/C(=O)c2cccc(C(F)(F)F)c2)[nH]c2cc(N3CCCOC3=O)ccc21 [Compound 178, (E)-N-(1-(2-fluoro-2-methylpropyl)-5-(2-oxo-1,3-oxazinan-3-yl)-1H-benzo[d]imidazol-2(3H)-ylidene)-3-(trifluoromethyl)benzamide] | 100 to 1000 | ≤ 100
O=C(/N=c1\[nH]c2cc(N3CCCOC3=O)ccc2n1CC1CCCOC1)c1cccc(C(F)(F)F)c1 (stereo not drawn) [Compound 180, (E)-N-(5-(2-oxo-1,3-oxazinan-3-yl)-1-((tetrahydro-2H-pyran-3-yl)methyl)-1H-benzo[d]imidazol-2(3H)-ylidene)-3-(trifluoromethyl)benzamide] | 100 to 1000 | ≤ 100
O=C(/N=c1\[nH]c2cc(N3CCCOC3=O)ccc2n1CC1CCCCC1)c1cccc(C(F)(F)F)c1 [Compound 181, (E)-N-(1-(cyclohexylmethyl)-5-(2-oxo-1,3-oxazinan-3-yl)-1H-benzo[d]imidazol-2(3H)-ylidene)-3-(trifluoromethyl)benzamide] | > 1000 | ≤ 100
O=C(/N=c1\[nH]c2cc(N3CCN(C4CC4)CC3=O)ccc2n1CCCO)c1cccc(C(F)F)c1 [Compound 182, (E)-N-(5-(4-cyclopropyl-2-oxopiperazin-1-yl)-1-(3-hydroxypropyl)-1H-benzo[d]imidazol-2(3H)-ylidene)-3-(difluoromethyl)benzamide] | ≤ 100 | ≤ 100
O=C(/N=c1\[nH]c2cc(N3CCN(C4CCC4)CC3=O)ccc2n1CCCO)c1cccc(C(F)F)c1 [Compound 184, (E)-N-(5-(4-cyclobutyl-2-oxopiperazin-1-yl)-1-(3-hydroxypropyl)-1H-benzo[d]imidazol-2(3H)-ylidene)-3-(difluoromethyl)benzamide] | ≤ 100 | ≤ 100
CC(C)N1CCN(c2ccc3c(c2)[nH]/c(=N\C(=O)c2cccc(C(F)F)c2)n3CCCO)C(=O)C1 [Compound 185, (E)-3-(difluoromethyl)-N-(1-(3-hydroxypropyl)-5-(4-isopropyl-2-oxopiperazin-1-yl)-1H-benzo[d]imidazol-2(3H)-ylidene)benzamide] | ≤ 100 | ≤ 100
C[C@H](CCO)n1/c(=N/C(=O)c2cccc(C(F)F)c2)[nH]c2cc(N3CCOCC3=O)ccc21 [Compound 242, (R,E)-3-(difluoromethyl)-N-(1-(4-hydroxybutan-2-yl)-5-(3-oxomorpholino)-1H-benzo[d]imidazol-2(3H)-ylidene)benzamide] | ≤ 100 | ≤ 100
O=C(/N=c1\[nH]c2cc(N3CCCOCC3=O)ccc2n1CCCO)c1cccc(C(F)F)c1 [Example 186, (E)-3-(difluoromethyl)-N-(1-(3-hydroxypropyl)-5-(3-oxo-1,4-oxazepan-4-yl)-1H-benzo[d]imidazol-2(3H)-ylidene)benzamide] | ≤ 100 | ≤ 100
O=C(/N=c1\[nH]c2cc(N3CCOCCC3=O)ccc2n1CCCO)c1cccc(C(F)F)c1 [Example 187, (E)-3-(difluoromethyl)-N-(1-(3-hydroxypropyl)-5-(5-oxo-1,4-oxazepan-4-yl)-1H-benzo[d]imidazol-2(3H)-ylidene)benzamide] | ≤ 100 | ≤ 100
